This passage reports Ki results from patent US7589087B2 (Janssen Pharmaceutica, N.V., priority 2006, dated 2009).

As a reminder, the Ki is the dissociation constant of the complex between target and ligand, obtained from inhibition or displacement.

Structures can show the parent of a compound that is named as a salt.

In this experiment the target is T1, human histamine H4 receptor (Homo sapiens, UniProt Q9H3N8).
T1 construct: expressed in transfected cells; host or cells: SK-N-MC cells or COS7 cells, transiently transfected; membranes prepared
Kind of experiment: Binding Assay on Recombinant Human Histamine H4 Receptor (3H-histamine competition, membranes of transfected SK-N-MC or COS7 cells). Note: ligand 5 nM. The protocol: SK-N-MC cells or COS7 cells were transiently transfected with pH4R and grown in 150 cm^2 tissue culture dishes. Cells were washed with saline solution, scraped with a cell scraper and collected by centrifugation (1000 rpm, 5 min). Cell membranes were prepared by homogenization of the cell pellet in 20 mM Tris-HCl with a polytron tissue homogenizer for 10 sec at high speed. Homogenate was centrifuged at 1000 rpm for 5 min at 4° C. The supernatant was then collected and centrifuged at 20,000×g for 25 min at 4° C. The final pellet was resuspended in 50 mM Tris-HCl. […] Incubation occurred at room temperature for 45 min. Membranes were harvested by rapid filtration over Whatman GF/C filters and washed 4 times with ice-cold 50 mM Tris HCl. Filters were then dried, mixed with scintillant and counted for radioactivity.

T1 sequence (Q9H3N8 whole entry): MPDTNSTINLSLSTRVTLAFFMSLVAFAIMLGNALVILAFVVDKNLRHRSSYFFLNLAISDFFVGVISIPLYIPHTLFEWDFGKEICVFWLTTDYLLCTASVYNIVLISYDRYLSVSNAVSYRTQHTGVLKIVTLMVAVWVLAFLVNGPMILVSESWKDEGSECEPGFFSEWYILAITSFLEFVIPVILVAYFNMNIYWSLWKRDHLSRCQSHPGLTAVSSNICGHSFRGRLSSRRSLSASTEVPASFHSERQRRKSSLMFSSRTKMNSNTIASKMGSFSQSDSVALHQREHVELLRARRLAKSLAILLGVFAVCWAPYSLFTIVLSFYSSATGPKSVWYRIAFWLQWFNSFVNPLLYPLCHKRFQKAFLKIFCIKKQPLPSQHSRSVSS

Consider `Cc1cc(C)c2nc(-c3ccc(N(C)CCCC4CCN(C)CC4)nc3)[nH]c2c1` [Example 1, [5-(4,6-Dimethyl-1H-benzoimidazol-2-yl)-pyridin-2-yl]-methyl-[3-(1-methyl-piperidin-4-yl)-propyl]-amine], for which the Ki turned out to be 0.012 µM.

As to `Cc1c(F)ccc2[nH]c(-c3ccc(N(C)CCCC4CCN(C)CC4)nc3)nc12` [Example 2, [5-(5-Fluoro-4-methyl-1H-benzoimidazol-2-yl)-pyridin-2-yl]-methyl-[3-(1-methyl-piperidin-4-yl)-propyl]-amine], the Ki was found to be 0.015 µM.

As to `CN1CCC(CCCNc2ccc(-c3nc4cc(Cl)ccc4[nH]3)cn2)CC1` [Example 3, [5-(5-Chloro-1H-benzoimidazol-2-yl)-pyridin-2-yl]-[3-(1-methyl-piperidin-4-yl)-propyl]-amine], the inhibition constant (Ki) stood at 0.006 µM.

As to `CN1CCC(CCCNc2ccc(-c3nc4cc(C(C)(C)C)ccc4[nH]3)cn2)CC1` [Example 4, [5-(5-tert-Butyl-1H-benzoimidazol-2-yl)-pyridin-2-yl]-[3-(1-methyl-piperidin-4-yl)-propyl]-amine], the inhibition constant Ki was determined as 0.009 µM.

Turning to `Cc1c(F)ccc2[nH]c(-c3ccc(NCCCC4CCN(C)CC4)nc3)nc12` [Example 5, [5-(5-Fluoro-4-methyl-1H-benzoimidazol-2-yl)-pyridin-2-yl]-[3-(1-methyl-piperidin-4-yl)-propyl]-amine], the Ki was 0.033 µM.

Turning to `Cc1cc(Cl)cc2[nH]c(-c3ccc(NCCCC4CCN(C)CC4)nc3)nc12` [Example 6, [5-(6-Chloro-4-methyl-1H-benzoimidazol-2-yl)-pyridin-2-yl]-[3-(1-methyl-piperidin-4-yl)-propyl]-amine], the inhibitory constant (Ki) stood at 0.016 µM.

For `COc1ccc2[nH]c(-c3ccc(NCCCC4CCN(C)CC4)nc3)nc2c1` [Example 7, [5-(5-Methoxy-1H-benzoimidazol-2-yl)-pyridin-2-yl]-[3-(1-methyl-piperidin-4-yl)-propyl]-amine], the Ki came to 0.5 µM.

For `COC(=O)c1ccc2[nH]c(-c3ccc(NCCCC4CCN(C)CC4)nc3)nc2c1` [Example 8, 2-{6-[3-(1-Methyl-piperidin-4-yl)-propylamino]-pyridin-3-yl}-1H-benzoimidazole-5-carboxylic acid methyl ester], the inhibitory constant (Ki) is 1.59 µM.

As to `Cc1cc(Cl)cc2[nH]c(-c3ccc(NCCCN4CCN(C)CC4)nc3)nc12` [Example 9, [5-(6-Chloro-4-methyl-1H-benzoimidazol-2-yl)-pyridin-2-yl]-[3-(4-methyl-piperazin-1-yl)-propyl]-amine], the Ki amounted to 0.35 µM.

Consider `Cc1c(F)ccc2[nH]c(-c3ccc(NCCCN4CCN(C)CC4)nc3)nc12` [Example 10, [5-(5-Fluoro-4-methyl-1H-benzoimidazol-2-yl)-pyridin-2-yl]-[3-(4-methyl-piperazin-1-yl)-propyl]-amine], for which the inhibition constant (Ki) came to 0.93 µM.

As to `Cc1cc(-c2nc3c(C)c(F)ccc3[nH]2)cnc1NCCCC1CCN(C)CC1` [Example 11, [5-(5-Fluoro-4-methyl-1H-benzoimidazol-2-yl)-3-methyl-pyridin-2-yl]-[3-(1-methyl-piperidin-4-yl)-propyl]-amine], the inhibition constant Ki worked out at 0.022 µM.

Regarding `Cc1cc(-c2nc3c(F)c(F)ccc3[nH]2)cnc1NCCCC1CCN(C)CC1` [Example 12, [5-(4,5-Difluoro-1H-benzoimidazol-2-yl)-3-methyl-pyridin-2-yl]-[3-(1-methyl-piperidin-4-yl)-propyl]-amine], the inhibitory constant (Ki) was 0.078 µM.

Consider `Cc1c(F)ccc2[nH]c(-c3ccc(N(CCCC4CCN(C)CC4)C(C)C)nc3)nc12` [Example 13, [5-(5-Fluoro-4-methyl-1H-benzoimidazol-2-yl)-pyridin-2-yl]-isopropyl-[3-(1-methyl-piperidin-4-yl)-propyl]-amine], for which the inhibitory constant (Ki) came out at 0.73 µM.

`Cc1cc(C)c2nc(-c3ccnc(N(C)CCCCC4CCN(C)CC4)c3)[nH]c2c1` [Example 14, [4-(4,6-Dimethyl-1H-benzoimidazol-2-yl)-pyridin-2-yl]-methyl-[4-(1-methyl-piperidin-4-yl)-butyl]-amine hydrochloride salt]: the Ki stood at 0.04 µM.
